In patent publication US10544149B2, “Bicyclic alkyne derivatives and uses thereof” (Agency for Science, Technology and Research, priority 2013, dated 2020):
Counter-ions that a name gives are not always drawn.

What was measured:
[1] = tested on: eIF4e phosphorylation in Hela cell line; experiment: eIF4e phosphorylation inhibition in Hela cell line; format: cell-based; details: Homo sapiens, cellular
[2] = biological target: MNK2 (Homo sapiens, UniProt Q9HBH9); experiment: MNK2 enzymatic assay; format: biochemical
MNK2, sequence (Q9HBH9 whole entry): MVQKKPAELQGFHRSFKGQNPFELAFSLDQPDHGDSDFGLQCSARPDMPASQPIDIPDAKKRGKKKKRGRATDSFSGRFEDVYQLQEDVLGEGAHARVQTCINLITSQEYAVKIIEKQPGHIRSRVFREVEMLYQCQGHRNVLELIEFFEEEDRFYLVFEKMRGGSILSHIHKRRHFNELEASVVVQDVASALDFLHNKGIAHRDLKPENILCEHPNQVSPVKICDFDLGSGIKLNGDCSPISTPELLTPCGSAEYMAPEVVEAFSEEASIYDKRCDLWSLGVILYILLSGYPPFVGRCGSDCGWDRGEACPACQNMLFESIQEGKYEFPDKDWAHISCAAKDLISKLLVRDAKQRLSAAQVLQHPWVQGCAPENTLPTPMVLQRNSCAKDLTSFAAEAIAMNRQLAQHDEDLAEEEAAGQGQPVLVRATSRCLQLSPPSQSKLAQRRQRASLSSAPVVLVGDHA

[3] = biological target: MNK1 (Homo sapiens, UniProt Q9BUB5); experiment: MNK1 enzymatic assay; format: biochemical
MNK1, sequence (Q9BUB5 whole entry): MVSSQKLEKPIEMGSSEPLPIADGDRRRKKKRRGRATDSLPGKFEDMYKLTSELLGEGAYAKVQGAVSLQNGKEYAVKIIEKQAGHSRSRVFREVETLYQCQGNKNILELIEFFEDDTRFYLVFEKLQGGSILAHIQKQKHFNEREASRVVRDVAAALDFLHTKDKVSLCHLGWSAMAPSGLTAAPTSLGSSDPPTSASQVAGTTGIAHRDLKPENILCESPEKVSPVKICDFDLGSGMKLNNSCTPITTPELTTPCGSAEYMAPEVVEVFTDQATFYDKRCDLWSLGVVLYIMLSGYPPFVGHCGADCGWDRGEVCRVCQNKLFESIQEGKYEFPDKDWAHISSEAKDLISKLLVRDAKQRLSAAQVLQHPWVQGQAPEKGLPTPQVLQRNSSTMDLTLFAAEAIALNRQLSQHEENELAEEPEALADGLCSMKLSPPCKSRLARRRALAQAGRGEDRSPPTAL

melting point [°C]	IC50 [1] [µM]	IC50 [2] [µM]	IC50 [3] [µM]	SMILES
78.2 to 79.4				Nc1cc(C#Cc2cnc3ccc(-c4ccc(C(=O)N5CCOCC5)cc4F)nn23)ccn1 (as salt: salt) [Example 122, (4-(3-((2-aminopyridin-4-yl)ethynyl)imidazo[1,2-b]pyridazin-6-yl)-3-fluorophenyl)(morpholino)methanone formate salt]
57.6 to 58.9				Nc1cc(C#Cc2cnn3ccc(-c4ccc(C(=O)N5CCOCC5)cc4F)nc23)ccn1 (as salt: salt) [Example 123, (4-(3-((2-aminopyridin-4-yl)ethynyl)pyrazolo[1,5-a]pyrimidin-5-yl)-3-fluorophenyl)(morpholino) methanone formic acid salt]
120 to 122				CN1CCN(C(=O)c2ccc(-c3ccc4ncc(C#Cc5ccnc(N)c5)n4n3)cc2)CC1 [Example 76, (4-(3-((2-aminopyridin-4-yl)ethynyl)imidazo[1,2-b]pyridazin-6-yl)phenyl)(4-methylpiperazin-1-yl)methanone]
193.6 to 194.6				CN1CCN(C(=O)c2ccc(-c3ccc4ncc(C#Cc5ccnc(N)c5)n4n3)cc2)CC1=O [Example 77, 4-(4-(3-((2-aminopyridin-4-yl)ethynyl)imidazo[1,2-b]pyridazin-6-yl)benzoyl)-1-methylpiperazin-2-one]
193.7 to 194.8				Nc1cc(C#Cc2cnc3ccc(-c4ccc(C(=O)N5CCOCC5)c(Cl)c4)nn23)ccn1 [Example 82, (4-(3-((2-aminopyridin-4-yl)ethynyl)imidazo[1,2-b]pyridazin-6-yl)-2-chlorophenyl)(morpholino)methanone]
258.5 to 258.9				Nc1cc(C#Cc2cnc3ccc(-c4ccc(C(=O)N5CCOCC5)c(C(F)(F)F)c4)nn23)ccn1 [Example 83, (4-(3-((2-aminopyridin-4-yl)ethynyl)imidazo[1,2-b]pyridazin-6-yl)-2-(trifluoromethyl)phenyl) (morpholino)methanone]
258.2 to 259.5				CC(=O)Nc1cc(C#Cc2cnc3ccc(-c4ccc(C(=O)N5CCN(C)C(=O)C5)cc4)nn23)ccn1 [Example 84, N-(4-((6-(4-(4-methyl-3-oxopiperazine-1-carbonyl)phenyl)imidazo[1,2-b]pyridazin-3-yl)ethynyl)pyridin-2-yl)acetamide]
207.2 to 208.2				CN1CCN(C(=O)c2ccc(-c3ccc4ncc(C#Cc5ccnc6[nH]ccc56)n4n3)cc2)CC1=O [Example 85, 4-(4-(3-((1H-pyrrolo[2,3-b]pyridin-4-yl)ethynyl)imidazo[1,2-b]pyridazin-6-yl)benzoyl)-1-methylpiperazin-2-one]
216.8 to 217.9				CC(=O)Nc1cc(C#Cc2cnc3ccc(-c4ccc(C(=O)N5CCN(C)CC5)cc4)nn23)ccn1 [Example 87, N-(4-((6-(4-(4-methylpiperazine-1-carbonyl)phenyl)imidazo[1,2-b]pyridazin-3-yl)ethynyl)pyridin-2-yl)acetamide]
143.5 to 144.2				Nc1cc(C#Cc2cnc3cnc(-c4ccc(C(=O)N5CCOCC5)cc4)cn23)ccn1 [Example 88, (4-(3-((2-aminopyridin-4-yl)ethynyl)imidazo[1,2-a]pyrazin-6-yl)phenyl)(morpholino)methanone]
192.8 to 193.8				O=C(c1ccc(-c2cn3c(C#Cc4ccnc5[nH]ncc45)cnc3cn2)cc1)N1CCOCC1 [Example 90, (4-(3-((1H-pyrazolo[3,4-b]pyridin-4-yl)ethynyl)imidazo[1,2-a]pyrazin-6-yl)phenyl) (morpholino)methanone]
119.8 to 121.1				Nc1cc(C#Cc2cnc3cnc(-c4ccc(C(=O)N5CCOCC5)c(Cl)c4)cn23)ccn1 [Example 93, (4-(3-((2-aminopyridin-4-yl)ethynyl)imidazo[1,2-a]pyrazin-6-yl)-2-chlorophenyl) (morpholino)methanone]
165 to 166				O=C(c1ccc(-c2ccc3ncc(C#Cc4ccncc4)n3c2)cc1)N1CCOCC1 [Example 94, morpholino(4-(3-(pyridin-4-ylethynyl)imidazo[1,2-a]pyridin-6-yl)phenyl)methanone]
99 to 104				Cc1cnccc1C#Cc1cnc2ccc(-c3ccc(C(=O)N4CCOCC4)cc3)cn12 [Example 95, (4-(3-((3-methylpyridin-4-yl)ethynyl)imidazo[1,2-a]pyridin-6-yl)phenyl) (morpholino)methanone]
133 to 138				Nc1cc(C#Cc2cnc3ccc(-c4ccc(C(=O)N5CCOCC5)cc4)cn23)ccn1 [Example 96, (4-(3-((2-aminopyridin-4-yl)ethynyl)imidazo[1,2-a]pyridin-6-yl)phenyl)(morpholino)methanone]
	< 5	< 0.5	< 0.5	Cc1ncccc1Nc1cc(C#Cc2cnc3ccc(-c4ccc(C(=O)N5CCNCC5)cc4)cn23)ccn1 [Example 107, (4-(3-((2-(2-methylpyridin-3-ylamino)pyridin-4-yl)ethynyl)imidazo[1,2-a]pyridin-6-yl)phenyl)(piperazin-1-yl)methanone]
	< 5	< 0.5	< 0.5	Nc1cc(C#Cc2cnc3ccc(-c4ccc(C(=O)N5CCNCC5)cc4)cn23)ccn1 [Example 108, (4-(3-((2-aminopyridin-4-yl)ethynyl)imidazo[1,2-a]pyridin-6-yl)phenyl)(piperazin-1-yl)methanone]
125 to 130	< 5	< 0.5	< 0.5	O=C(c1ccc(-c2ccc3ncc(C#Cc4ccncc4)n3c2)cc1)N1CCNCC1 [Example 109, piperazin-1-yl(4-(3-(pyridin-4-ylethynyl)imidazo[1,2-a]pyridin-6-yl)phenyl)methanone]
242 to 245	< 5	< 0.5	< 0.5	O=C(c1ccc(-c2ccc3ncc(C#Cc4ccnc5[nH]ccc45)n3c2)cc1)N1CCNCC1 [Example 110, (4-(3-((1H-pyrrolo[2,3-b]pyridin-4-yl)ethynyl)imidazo[1,2-a]pyridin-6-yl)phenyl)(piperazin-1-yl)methanone]
	< 5	< 0.5	< 0.5	Nc1cc(C#Cc2cnc3ccc(-c4ccc(C(=O)N5CCNCC5)cc4)cn23)c2cc[nH]c2n1 [Example 111, (4-(3-((6-amino-1H-pyrrolo[2,3-b]pyridin-4-yl)ethynyl)imidazo[1,2-a]pyridin-6-yl)phenyl)(piperazin-1-yl)methanone]
129.8 to 130.6				Nc1cc(C#Cc2cnn3ccc(-c4ccc(C(=O)N5CCOCC5)cc4)nc23)ccn1 [Example 117, (4-(3-((2-aminopyridin-4-yl)ethynyl)pyrazolo[1,5-a]pyrimidin-5 yl)phenyl)(morpholino)methanone]
	< 5	< 0.5	< 0.5	Nc1cc(C#Cc2cnc3ccc(-c4ccc(C(=O)N5CCOCC5)cc4F)nn23)ccn1 [Example 122, (4-(3-((2-aminopyridin-4-yl)ethynyl)imidazo[1,2-b]pyridazin-6-yl)-3-fluorophenyl)(morpholino)methanone formate salt]
	< 5	< 0.5	< 0.5	Nc1cc(C#Cc2cnn3ccc(-c4ccc(C(=O)N5CCOCC5)cc4F)nc23)ccn1 [Example 123, (4-(3-((2-aminopyridin-4-yl)ethynyl)pyrazolo[1,5-a]pyrimidin-5-yl)-3-fluorophenyl)(morpholino) methanone formic acid salt]
